Key:
ctDNA = ctDNA detection by fluorescence of the probe in Tris-HCl/KCl buffer pH 7.2; assay type: binding
Protocol: First, a buffer solution of pH 7.2 is prepared, the preparation process of which is as follows: 394 mg of Tris-HCl and 1.863 g of KCl are added to a 250 ml beaker, and deionized water is added to prepare a buffer solution containing 10 mmol/L Tris-HCl and 100 mmol/L KCl and of pH 7.2 buffer solution.
Then, the buffer solution was used to prepare 0-500 μg/ml ctDNA aqueous solutions, wherein the BHVC content was maintained at 5×10^−6 mol/L.
Taking deionized water solution with ctDNA content of 100 μg/ml as an example, the specific preparation process is described as follows: First, […] compound BHVC was added to a 100 ml volumetric flask, followed by the addition of 100 ml pH 7.2 buffer solution to formulate to a BHVC buffer solution of concentration of 10^−4 mol/L, then 1 ml the above solution was removed to dilute to 10 ml so that the concentration of BHVC was 10^−5 mol/L, 5 ml of this solution was taken and added to a clean spawn bottle.
Then […] ctDNA was taken and added to 10 ml volumetric flask, buffer was added to formulate as 100 μg/ml ctDNA solution, 1 ml this solution was taken, and then added to 4 ml buffer solution, the ctDNA concentration is diluted to 20 μg/ml, the ctDNA solution was added dropwise to the BHVC buffer solution previously placed in the spawn bottle under vigorous stirring. After the addition was completed, the ctDNA solution was allowed to stand still for 2 hours and its UV-Vis absorption and fluorescence spectra were measured.
Based on the study of the absorption and aggregation-induced luminescence properties of BHVC, the fluorescence occurrence behavior of BHVC buffer solution with different ctDNA concentrations was studied with a buffer solution of pH 7.2 and containing 10 mmol/L Tris-HCl and 100 mmol/L KCl, the changes in the detected fluorescence spectrum are shown in FIG. 3 (a). It can be seen from the figure: as the ctDNA concentration increases, the fluorescence intensity of the solution gradually increases, and the fluorescence peak is blue-shifted. When the content of ctDNA changed from 0 μg/ml to 50 μg/ml, the maximum emission peak of fluorescence spectrum shifted from 633 nm to 598 nm, that is blue shifted […]. When the ctDNA concentration was more than 50 μg/ml, the blue shift of the peak of the fluorescence spectrum appeared inflection point, the rate of change slowed down. When the ctDNA content was 500 μg/ml, the peak shifted to 576 nm, which was a blue shift of […] relative to the fluorescence spectrum of a 50 μg/ml DNA solution (FIG. 3 (b)).
The trend in the change of fluorescence intensity of the solution is shown in FIG. 4 (A), with the ctDNA concentration increases, the fluorescence intensity of the solution can be divided into two intervals. […]

[1] = UV-Vis absorption of aqueous solutions at different concentrations (solubility); assay type: physicochemical; conditions: 10^-6 to 10^-4 mol/L, no shift of UV absorption spectrum
Description: The UV-vis absorption spectra of aqueous solutions of different concentrations of BHVC are shown in FIG. 1, the absorption peak at […] is derived from the absorption of the two cross-shaped skeletons of BHVC, and the absorption peak at […] is the characteristic absorption peak of tetraphenylethylene group. When the concentration of BHVC in aqueous solution changed from 10^−6 mol/L to 10^−4 mol/L, there was no red-shift or blue-shift of the UV absorption spectrum of the solution. In general, the shift of the absorption peak of the π-conjugated chromophore solution is due to the π-π interaction between the molecules.

[2] = Fluorescence in water, ethanol and acetone (aggregation-induced luminescence); assay type: physicochemical
Protocol: Fluorescence spectra were measured on a Perkin Elmer LS95, HITACH F-4500, and Edinburgh FLS920 fluorescence spectrometers at room temperature with laterally collection of fluorescence. Fluorescence lifetime was measured using the Edinburgh FLS920 fluorescence spectrometer. Two-photon fluorescence utilized laser pulses emitted by a Ti: sapphire Mira900-F mode-locked laser as the irradiation light source with a repetition frequency of 76 MHz and a pulse width of 200 fs using the SpectroPro 300i spectrometer to collect fluorescence laterally. […] All the test utilized 1.0 cm×1.0 cm Quartet pass quartz crystal cuvette. Reagents used to prepare solutions are either spectroscopic or chromatographic purified.
It can be seen that the fluorescence intensity of BHVC in aqueous solution is very weak and the fluorescence emission peak is at 627 nm. However, the fluorescence intensity in ethanol solution with the same concentration of BHVC increases by 30 times, and the fluorescence emission peak red-shifted to 631 nm. In fact, ethanol is a poor solvent for BHVC. Therefore, BHVC exists in the form of aggregates in ethanol solvent.

In the case of CCn1c2cc(/C=C/c3cc[n+](C)cc3)ccc2c2ccc(/C=C/c3cc[n+](C)cc3)cc21.[I-].[I-] [BHVC, 2,7-bis (1-methyl-4-vinylpyridine)-9-ethylcarbazole iodised salt], the “Stern-Volmer constant Ksv” value (ctDNA; ctDNA 0-50 μg/ml linear interval, I/I0=Ksv[Q]+1, excitation 420 nm) is reported as 1.4×10^2, the “blue shift of emission peak (to 576 nm) relative to 50 μg/ml DNA solution” value (ctDNA; ctDNA 500 μg/ml) is reported as 24 nm and the “increase of fluorescence intensity relative to 0 μg/ml ctDNA” value (ctDNA; ctDNA 500 μg/ml, BHVC 5×10^-6 mol/L) is reported as 20 fold. For the same molecule, the blue shift of maximum emission peak (633 nm to 598 nm) (ctDNA; ctDNA from 0 μg/ml to 50 μg/ml) was 35 nm, the “solubility in aqueous solution” value [1] was “good solubility” and the “increase of fluorescence intensity in ethanol versus aqueous solution” value ([2]; 10^-5 mol/L, excitation 420 nm) was 30 times. The “solvent quality of ethanol for the probe” value ([2]; ethanol, exists as aggregates) was “poor solvent”.

Source: patent US10711313B2, “Kit for detecting ctDNA and expression of drug-resistant genes related to applicability of tumor chemotherapeutic drugs” (GUIZHOU MEDICAL UNIVERSITY, priority 2018, dated 2020)
